Reference: ChEMBL document CHEMBL3751691, “A Journey around the Medicinal Chemistry of Hepatitis C Virus Inhibitors Targeting NS4B: From Target to Preclinical Drug Candidates” (J Med Chem, 2016)

Assays:
Hepatitis C virus [1] = assay: Antiviral activity against HCV genotype 1b infected in human Huh7 cells assessed as inhibition of viral replication by luciferase reporter-based viral replicon assay; assay type: functional, organism-based, Hepacivirus hominis; details: Huh-7
Hepatitis C virus [2] = assay: Antiviral activity against HCV genotype 1b after 3 days by luciferase reporter assay; assay type: functional, organism-based, Hepacivirus hominis; details: 72 h
[3] = Inhibition of HCV NS3/4A protease; parameters: species or system Hepacivirus hominis
Hepatitis C virus [4] = assay: Antiviral activity against HCV genotype 1b infected in human Huh7 cells assessed as inhibition of viral replication after 72 hrs by ELISA; assay type: functional, organism-based, Hepacivirus hominis; details: Huh-7, 72 h
[5] = Binding affinity to […] by fluorescence assay; parameters: species or system Hepacivirus hominis
Hepatitis C virus [6] = assay: Antiviral activity against HCV genotype 2a (JFH-1) infected in human Huh7 cells assessed as inhibition of viral replication by luciferase reporter-based viral replicon assay; assay type: functional, organism-based, Hepacivirus hominis; details: JFH-1, Huh-7
Hepatitis C virus [7] = assay: Antiviral activity against HCV genotype 3a infected in human Huh7 cells assessed as inhibition of viral replication by luciferase reporter-based viral replicon assay; assay type: functional, organism-based, Hepacivirus hominis; details: Huh-7
[8] = Binding affinity to HCV NS4B […] by quantitative PCR analysis; parameters: species or system Hepacivirus hominis
Hepatitis C virus [9] = assay: Antiviral activity against HCV genotype 1a (H77) infected in human Huh7 cells assessed as inhibition of viral replication by luciferase reporter-based viral replicon assay; assay type: functional, organism-based, Hepacivirus hominis; details: genotype 1a H77, Huh-7
[10] = Cytotoxicity against human HuH7 cells by Cell Titer-Glo assay; assay type: cell-based, Huh-7
Hepatitis C virus [11] = assay: Antiviral activity against HCV genotype 4a infected in human Huh7 cells assessed as inhibition of viral replication by luciferase reporter-based viral replicon assay; assay type: functional, organism-based, Hepacivirus hominis; details: Huh-7
Hepatitis C virus [12] = assay: Antiviral activity against HCV genotype 6o infected in human Huh7 cells assessed as inhibition of viral replication by luciferase reporter-based viral replicon assay; assay type: functional, organism-based, Hepacivirus hominis; details: subtype 6, Huh-7
Hepatitis C virus [13] = assay: Antiviral activity against HCV genotype 6a infected in human Huh7 cells assessed as inhibition of viral replication by luciferase reporter-based viral replicon assay; assay type: functional, organism-based, Hepacivirus hominis; details: Huh-7
Hepatitis C virus [14] = assay: Antiviral activity against HCV genotype 5a infected in human Huh7 cells assessed as inhibition of viral replication by luciferase reporter-based viral replicon assay; assay type: functional, organism-based, Hepacivirus hominis; details: Huh-7
Hepatitis C virus [15] = assay: Antiviral activity against HCV genotype 2b infected in human Huh7 cells assessed as inhibition of viral replication by luciferase reporter-based viral replicon assay; assay type: functional, organism-based, Hepacivirus hominis; details: Huh-7
Hepatitis C virus [16] = assay: Antiviral activity against HCV genotype 1a infected in human Huh7 cells assessed as inhibition of viral replication by luciferase reporter-based viral replicon assay; assay type: functional, Hepacivirus hominis; details: subtype 1a, Huh-7
Hepatitis C virus [17] = assay: Antiviral activity against HCV genotype 1b; assay type: functional, organism-based, Hepacivirus hominis
Hepatitis C virus [18] = assay: Antiviral activity against HCV genotype 2a infected in Huh7.5 cells assessed as inhibition of viral replication at 72 hrs by luciferase reporter-based viral replicon assay; assay type: functional, organism-based, Hepacivirus hominis; details: Huh7.5, 72 h
Hepatitis C virus [19] = assay: Antiviral activity against HCV genotype 1b infected in Huh7.5 cells assessed as inhibition of viral replication at 72 hrs by luciferase reporter-based viral replicon assay; assay type: functional, organism-based, Hepacivirus hominis; details: Huh7.5, 72 h
[20] = Inhibition of HCV GST-tagged recombinant NS3/4A protease expressed in Escherichia coli by microfluidic affinity assay; parameters: species or system Hepacivirus hominis
Hepatitis C virus [21] = assay: Antiviral activity against HCV genotype 1b infected in human Huh7.5 cells assessed as inhibition of viral replication after 24 hrs by renilla luciferase reporter-based viral replicon assay; assay type: functional, organism-based, Hepacivirus hominis; details: Huh-7, 24 h
Hepatitis C virus [22] = assay: Antiviral activity against HCV genotype 1a infected in Huh7.5 cells assessed as inhibition of viral replication after 24 hrs by renilla luciferase reporter-based viral replicon assay; assay type: functional, organism-based, Hepacivirus hominis; details: subtype 1a, Huh7.5, 24 h
[23] = Cytotoxicity against human Huh7.5 cells infected with HCV genotype 1b after 24 hrs by Cell Titer-Glo assay; assay type: cell-based, Huh-7

In the case of `CC[C@H]1C(=O)N[C@@H](CC(C)C)CN1C(=O)[C@@H]1C[C@H]1c1ccccc1`, the EC90 (Hepatitis C virus [1]) is reported as > 10000 nM.

In the case of `Cc1cnc(C(=O)N[C@H]2CCCCC/C=C\[C@@H]3C[C@@]3(C(=O)NS(=O)(=O)C3CC3)NC(=O)[C@@H]3C[C@@H](Oc4nc5ccccc5c5ccccc45)CN3C2=O)cn1`, the EC50 (Hepatitis C virus [2]) is reported as 0.21 nM.

Compound `CC(C)(C)NC(=O)N[C@H](C(=O)N1C[C@H]2[C@@H]([C@H]1C(=O)NC(CC1CCC1)C(=O)C(N)=O)C2(C)C)C(C)(C)C` (stereo partly drawn) [BOCEPREVIR] has a Ki [3] of 14 nM.

For `CC[C@H](C)[C@H]1CN(C(=O)c2cc(-c3ccc(F)cc3)on2)[C@@H](CC(C)C)C(=O)N1`, the EC90 (Hepatitis C virus [1]) was > 10000 nM.

In the case of `CC(C)C[C@H]1CN(C(=O)C2CC2)[C@@H](CC(C)C)C(=O)N1`, the EC90 (Hepatitis C virus [1]) is reported as > 10000 nM.

`COC(=O)c1c(NC(=O)Cc2cccs2)sc(C(=O)Nc2ccc(Cl)cc2)c1C` gave an EC50 (Hepatitis C virus [4]) of 700 nM and a Kd [5] of 300 nM.

For `O=C(c1ccccc1)N1CCC2(CCCN(c3ncc(-c4ccccc4)c(-c4ccc(Cl)cc4)n3)C2)CC1`, the EC50 (Hepatitis C virus [6]) was 7600 nM, the EC50 (Hepatitis C virus [7]) was 43.8 nM and the Kd [8] was 45.8 nM. The EC50 (Hepatitis C virus [9]) was 800 nM, the CC50 [10] was > 43000 nM and the EC50 (Hepatitis C virus [11]) was 200 nM. The EC50 (Hepatitis C virus [12]) was 9500 nM, the EC50 (Hepatitis C virus [13]) was 800 nM and the EC50 (Hepatitis C virus [1]) was 20 nM. For the same compound, the EC50 (Hepatitis C virus [14]) was 26.6 nM and the EC50 (Hepatitis C virus [15]) was 2200 nM.

`CC(C)C[C@H]1CN(C/C=C/c2ccccc2)[C@@H](CC(C)C)C(=O)N1` showed an EC90 (Hepatitis C virus [1]) of 3300 nM.

For `CC(C)C[C@H]1CN(C(=O)c2coc(-c3ccccc3)n2)[C@@H](CC(C)C)C(=O)N1`, the EC90 (Hepatitis C virus [1]) was > 10000 nM.

In the case of `CC(C)C[C@H]1CN(C(=O)/C=C/c2ccccc2)[C@@H](CC(C)C)C(=O)N1`, the EC90 (Hepatitis C virus [1]) is reported as 2300 nM.

With `CC(C)C[C@H]1C(=O)N[C@@H](c2cccs2)CN1C(=O)c1cc(-c2ccc(F)cc2)on1` the EC90 (Hepatitis C virus [1]) was 6 nM and the EC90 (Hepatitis C virus [16]) was 22 nM.

For `CC(C)C[C@H]1CN(C(=O)[C@@H]2C[C@H]2c2ccccc2)[C@@H](CC(C)C)C(=O)N1C`, the EC90 (Hepatitis C virus [1]) was 8800 nM.

In the case of `CC(C)(C)c1ccc(C(=O)Nc2sc3c(c2C(N)=O)CCCC3)cc1`, the EC50 (Hepatitis C virus [4]) is reported as 870 nM and the Kd [5] is reported as 300 nM.

In the case of `CCC[C@H]1CN(C(=O)[C@@H]2C[C@H]2c2ccccc2)[C@@H](CC(C)C)C(=O)N1`, the EC90 (Hepatitis C virus [1]) is reported as 900 nM.

For `CCC[C@H]1CN(C(=O)c2cc(-c3ccc(F)cc3)on2)[C@@H](CC(C)C)C(=O)N1`, the EC90 (Hepatitis C virus [1]) was 100 nM.

`CCC[C@H](NC(=O)[C@@H]1[C@H]2CCC[C@H]2CN1C(=O)[C@@H](NC(=O)[C@@H](NC(=O)c1cnccn1)C1CCCCC1)C(C)(C)C)C(=O)C(=O)NC1CC1` gave a Ki [3] of 7 nM and an EC50 (Hepatitis C virus [17]) of 350 nM.

Work on `Clc1ccc(Cn2c(CN3CCCC3)nc3ccccc32)cc1` [CLEMIZOLE] yielded an EC50 (Hepatitis C virus [18]) of 8000 nM, an EC50 (Hepatitis C virus [19]) of 23000 nM and an IC50 [20] of 24 nM.

For `O=C(NCc1cccs1)c1nn2c(c1Cl)N[C@H](c1ccco1)C[C@@H]2C(F)(F)F`, the EC50 (Hepatitis C virus [21]) was 630 nM, the EC50 (Hepatitis C virus [22]) was 620 nM and the CC50 at 24 h [23] was > 100000 nM.

With `CC(C)c1ccc(NC(=O)c2ccccc2)cc1` the EC50 (Hepatitis C virus [4]) was 2800 nM and the Kd [5] was 6900 nM.

For `CC(C)C[C@H]1CN(C(=O)c2cc(-c3ccc(F)cc3)on2)[C@@H](CC(C)C)C(=O)N1`, the EC90 (Hepatitis C virus [1]) was 130 nM.

`CCCCc1c(C)nn(-c2nnc3c4ccccc4n(CC)c3n2)c1C` gave an EC50 (Hepatitis C virus [4]) of 1130 nM and a Kd [5] of 1200 nM.

In the case of `CC(C)C[C@H]1CN(C(=O)c2cccc(-c3ccccc3)c2)[C@@H](CC(C)C)C(=O)N1`, the EC90 (Hepatitis C virus [1]) is reported as > 10000 nM.

In the case of `CC(C)C[C@H]1CN(C(=O)c2cc(-c3ccc(Cl)cc3)on2)[C@@H](CC(C)C)C(=O)N1`, the EC90 (Hepatitis C virus [1]) is reported as 290 nM.

With `O=C(c1ccccc1)N1CCC2(CCCN(c3ncc(Br)c(-c4ccc(Cl)cc4)n3)C2)CC1` the Kd [8] was 52.9 nM, the EC50 (Hepatitis C virus [9]) was 2200 nM and the CC50 [10] was 38700 nM. It also gave an EC50 (Hepatitis C virus [1]) of 172 nM.

`C/C=C/[C@H]1CN(C(=O)c2cc(-c3ccc(F)cc3)on2)[C@@H](CC(C)C)C(=O)N1` gave an EC90 (Hepatitis C virus [1]) of 60 nM.
